Usually IC50 stands for the concentration that inhibits the measured activity by half. Read a low IC50 as inhibition by little substance.

For the experiment, the system named is PNC in PC3M cells. Briefly: PNC disassembly assay in PC3M cells. It is filed as cell-based. The conditions noted are these: PC3M (PTB-GFP) cells. How it is done: The PNC disassembly assay has been previously described. […] Cells were fixed with […] for 10 min at room temperature. […] Confocal images were obtained using Opera Phoenix (PerkinElmer, Waltham, MA) and a 20× objective lens.
To examine whether measured intratumor metarrestin concentrations measured in PK studies track with intracellular metarrestin concentration, we first decided to synthesize a fluorophore conjugated analog of metarrestin. Structure activity relationship studies around the structure of metarrestin were conducted in a high throughput assay that measured in dose dependence the ability of compounds to reducing PNC prevalence in PC3M cells. […] This analog was chemically conjugated to the fluorophore boron-dipyrromethene (BODIPY®) to track the disassembly of the PNC in PC3M cancer cells by confocal microscopy (Suppl. Figure 2). […] Next, to examine cellular metarrestin levels in relation to extracellular concentrations, we exposed KPC and PC3M cells at 1 and 10 µM concentrations of metarrestin and harvested cells at different timepoints.

In the case of `N=c1c2c(-c3ccccc3)c(-c3ccccc3)n(Cc3ccccc3)c2ncn1C1CCOCC1` [NCGC00244845], the half-maximal inhibitory concentration (IC50) came to 89 nM.

Source of the values: PMC6267684, “Pharmacokinetic evaluation of the PNC disassembler metarrestin in wild-type and Pdx1-Cre;LSL-Kras^G12D/+;Tp53^R172H/+ (KPC) mice, a genetically engineered model of pancreatic cancer” (Cancer Chemotherapy and Pharmacology, 2018).
